{"source": "patent US8623911B2", "about": "“Boron-containing small molecules as anti-protozoal agent” (Anacor Pharmaceuticals, Inc., priority 2010, dated 2014)", "test": "Pharmacokinetic studies in mice (plasma and brain, IV and oral gavage)", "assay_type": "in vivo, male CD-1 mice", "details": "for AUC(0-t) / clearance / AUC(0-inf) / Vd / CL/F / half-life: male, CD-1, mouse; for AUC(0-t): read-out: Exposure/trapezoid AUC0-last; for clearance: read-out: Clearance Cl (converted); for AUC(0-inf): read-out: Exposure/trapezoid AUC0-inf; for Vd: read-out: Vdss; for CL/F: read-out: Oral Clearance Cl/F (converted); for half-life: read-out: t½ (converted); for Cmax: mouse, male CD-1 mice", "experimental": "Male CD-1 mice weighing approximately 20 to 30 g received the test article M1 by either intravenous (IV) or oral gavage (OG) routes. Animals in the IV group (11 animals, 1 per time point) received a single bolus injection at a nominal dose level of 2 mg/kg of the test article. Animals receiving oral doses were administered the test article as a single OG dose (10 animals per dose level, 1 per time point) at nominal dose levels of 25 and 50 mg/kg. IV doses were administered as a solution in 5% (w/v) dextrose in sterile water for injection. OG doses at 25 and 50 mg/kg were administered as suspensions in 5% (w/v) dextrose in sterile water for injection and as in situ sodium salts in 5% (m/v) dextrose: 2% (v/v) ethanol in DWI, respectively. All dose solutions were delivered at 4 mL/kg. Animals receiving the IV dose at 2 mg/kg or the OG dose at 25 mg/kg were not fasted. Animals receiving the OG dose at 50 mg/kg were fasted for 4 hours before dosing and for 1 hour after dosing. Blood and brain tissue were collected from 1 animal/timepoint/group at 0.17, 0.5, 1, 2, 3, 4, 6, 8, 12, 18 and 24 hr after IV dosing, and at 0.5, 1, 2, 3, 4, 6, 8, 12, 18 and 24 hr after OG dosing. Whole blood samples were processed completely to plasma following collection. Plasma and brain tissue were submitted to bioanalysis to determine pharmacokinetic parameters and test article CNS disposition. Plasma and brain tissue from non-dosed animals were collected to serve as surrogate pre-dose samples. Bioanalysis for test article in plasma and brain tissue was performed by HPLC with tandem mass spectrometry (LC-MSMS). Plasma samples were treated with 4 volumes of 0.5% formic acid in methanol to precipitate plasma proteins. Treated samples were centrifuged and supernatants removed for analysis. Brain tissues were massed and homogenized mechanically in the presence of 1 volume of phosphate-buffered saline (PBS). The resulting tissue homogenates were then diluted with a further volume of PBS, and then treated in the same manner as plasma. Extracted samples were assayed for test article by means of LC-MSMS employing reversed-phase chromatography coupled to a triple quadrupole mass spectrometer employing electrospray ionization in the positive ion mode. The analytical column was a Phenomenex Luna 3μ C8 50×2 mm, with an online sample purification step performed on a Phenomenex Synergi 4μ Polar RP 50×2 mm column. Test articles were eluted using a binary mobile phase gradient comprising 5 mM Ammonium Acetate: 0.1% formic acid in either MeOH or H2O. Non-compartmental analysis of plasma test article concentration versus time was performed in Microsoft Excel to generate pharmacokinetic parameters including: area under the curve (AUC), clearance (as Cl or Cl/F), volume of distribution (Vdss), half-life (t½), and bioavailability (F).", "key": {"[1]": {"details": "oral delivery to mice, 25 and 50 mg/kg"}}, "note": "Where two headings read alike, the source gives them in different places.", "data": [{"smiles": "O=C(Nc1ccc2c(c1)B(O)OCC2)c1ccc(F)cc1C(F)(F)F", "note": "[M1, 4-Fluoro-N-(1-hydroxy-3,4-dihydro-1H-benzo[c][1,2]oxaborinin-7-yl)-2-trifluoromethyl-benzamide]", "values": [{"measurement": "period brain concentrations are maintained above the MIC", "setting": "OG dosing at 25 mg/kg", "value": "approximately 5 hours"}, {"measurement": "period brain concentrations are maintained above the MIC", "setting": "OG dosing at 50 mg/kg", "value": "~10", "unit": "h"}, {"measurement": "AUC(0-t)", "setting": "brain, IV 2 mg/kg, last = 12 hours", "value": 700, "unit": "ng·h/mL"}, {"measurement": "clearance", "setting": "brain, IV 2 mg/kg", "value": 42.3, "unit": "mL/min/kg"}, {"measurement": "AUC(0-inf)", "setting": "brain, IV 2 mg/kg", "value": 890, "unit": "ng·h/mL"}, {"measurement": "Vd", "setting": "brain, IV 2 mg/kg", "value": 17.1, "unit": "L/kg"}, {"measurement": "AUC(0-t)", "setting": "brain, oral 25 mg/kg, last = 12 hours", "value": 14300, "unit": "ng·h/mL"}, {"measurement": "AUC(0-inf)", "setting": "brain, oral 25 mg/kg", "value": 14400, "unit": "ng·h/mL"}, {"measurement": "CL/F", "setting": "brain, oral 25 mg/kg", "value": 29.2, "unit": "mL/min/kg"}, {"measurement": "AUC(0-t)", "setting": "brain, oral 50 mg/kg, last = 12 hours", "value": 22900, "unit": "ng·h/mL"}, {"measurement": "AUC(0-inf)", "setting": "brain, oral 50 mg/kg", "value": 24700, "unit": "ng·h/mL"}, {"measurement": "CL/F", "setting": "brain, oral 50 mg/kg", "value": 36.5, "unit": "mL/min/kg"}, {"measurement": "AUC(0-t)", "setting": "plasma, IV 2 mg/kg, last = 24 hours", "value": 1580, "unit": "ng·h/mL"}, {"measurement": "clearance", "setting": "plasma, IV 2 mg/kg", "value": 27.8, "unit": "mL/min/kg"}, {"measurement": "AUC(0-inf)", "setting": "plasma, IV 2 mg/kg", "value": 1610, "unit": "ng·h/mL"}, {"measurement": "Vd", "setting": "plasma, IV 2 mg/kg", "value": 5, "unit": "L/kg"}, {"measurement": "half-life", "setting": "plasma, IV 2 mg/kg", "value": 6.88, "unit": "h"}, {"measurement": "AUC(0-t)", "setting": "plasma, oral 25 mg/kg, last = 24 hours", "value": 6390, "unit": "ng·h/mL"}, {"measurement": "AUC(0-inf)", "setting": "plasma, oral 25 mg/kg", "value": 6460, "unit": "ng·h/mL"}, {"measurement": "CL/F", "setting": "plasma, oral 25 mg/kg", "value": 64.5, "unit": "mL/min/kg"}, {"measurement": "half-life", "setting": "plasma, oral 25 mg/kg", "value": 5.29, "unit": "h"}, {"measurement": "AUC(0-t)", "setting": "plasma, oral 50 mg/kg, last = 24 hours", "value": 81400, "unit": "ng·h/mL"}, {"measurement": "AUC(0-inf)", "setting": "plasma, oral 50 mg/kg", "value": 83400, "unit": "ng·h/mL"}, {"measurement": "CL/F", "setting": "plasma, oral 50 mg/kg", "value": 10.2, "unit": "mL/min/kg"}, {"measurement": "Cmax", "setting": "brain, oral 25 mg/kg", "value": 5840, "unit": "ng/mL"}, {"measurement": "Cmax", "setting": "brain, oral 50 mg/kg", "value": 4210, "unit": "ng/mL"}, {"measurement": "Cmax", "setting": "plasma, oral 25 mg/kg", "value": 2230, "unit": "ng/mL"}, {"measurement": "Cmax", "setting": "plasma, oral 50 mg/kg", "value": 13400, "unit": "ng/mL"}, {"measurement": "dose proportionality of brain exposure", "setting": "[1]", "value": "approximately proportional"}, {"measurement": "dose proportionality of plasma exposure", "setting": "[1]", "value": "superproportional increase"}, {"measurement": "period for which brain:plasma ratio is greater than unity", "setting": "oral dose of 25 mg/kg", "value": "approximately 4 hours"}, {"measurement": "brain:plasma ratio", "setting": "oral dose of 25 mg/kg, for approximately 4 hours following dosing", "value": "greater than unity"}, {"measurement": "F (% of IV)", "setting": "plasma, oral 25 mg/kg", "value": "43.2 % of IV"}]}]}
